# According to US12721823B2, “Methods and compositions for treatment of low circulating testosterone conditions” (University of Florida Research Foundation, Inc., priority 2021, dated 2026):
# Assays:
# Assay type in all cases: in vivo, rat
# Sprague-Dawley rats [1] = test: Prepulse inhibition (PPI) of startle; settings: for startle amplitudes: all experimental groups; for PPI of startle at PP3: vs offspring of unexposed parents
# Text: Sixty-four G1 rats (32 control and 32 sevoflurane exposed) and 122 G2 rats, which were not exposed to sevoflurane anesthesia and were subjected to animal facility rearing only, were studied. The G1 rats were sequentially evaluated in the EPM starting on ~P125, PPI of the acoustic startle response on ~P135 and MWM starting ~on P145 (FIG. 1). One half of these animals were sacrificed on ≥P160 to collect trunk blood, brain and testis and ovarian tissues for further analyses. The rest of these animals were physically restrained for 30 min on ≥P160 to measure corticosterone responses, followed by collection of tissue samples (as above) for further analyses. The G2 rats were evaluated in the EPM starting on P60 and PPI of startle on P70 (FIG. 1). One half of these animals were sacrificed on ≥P95 to collect trunk blood and brain tissue samples for further analyses, and the rest of these animals were tested for the corticosterone responses to physical restraint for 30 min on ≥P95 before collecting the trunk blood and brain tissue samples.
# The PPI of startle tests were performed using a SR-Lab startle apparatus (San Diego Instruments, San Diego, CA) as previously described.^5-7 The % PPI for each prepulse level was calculated using the following formula: % PPI=100×[(pulse alone)−(prepulse+pulse)]/pulse alone. Data were collected as Vmax amplitude.
# Sprague-Dawley rats [2] = test: Basal and stress-induced (restraint) serum corticosterone, HPA axis activity; settings: for serum levels of corticosterone before and after physical restraint: all experimental groups
# Text: Sixty-four G1 rats (32 control and 32 sevoflurane exposed) and 122 G2 rats, which were not exposed to sevoflurane anesthesia and were subjected to animal facility rearing only, were studied. The G1 rats were sequentially evaluated in the EPM starting on ~[…], PPI of the acoustic startle response on ~[…] and MWM starting ~on […] (FIG. 1). One half of these animals were sacrificed on ≥[…] to collect trunk blood, brain and testis and ovarian tissues for further analyses. The rest of these animals were physically restrained for 30 min on ≥[…] to measure corticosterone responses, followed by collection of tissue samples (as above) for further analyses. The G2 rats were evaluated in the EPM starting on P60 and PPI of startle on P70 (FIG. 1). One half of these animals were sacrificed on ≥[…] to collect trunk blood and brain tissue samples for further analyses, and the rest of these animals were tested for the corticosterone responses to physical restraint for 30 min on ≥[…] before collecting the trunk blood and brain tissue samples. Blood samples (~300 μl) were collected using the “tail clip” method at rest and 10, 60, and 120 min after the restraint. Physical restraint was administered using rodent holders (Kent scientific Corporation, Torrington, CT). Serum corticosterone was measured using commercial ELISA kits (Cayman Chemical Company, Ann Arbor, MI, USA) according to the manufacturer's instructions.
# [3] = test system: Crh, Grs, Erα, Erβ, aromatase, Gnrh, Nkcc1 and Kcc2 mRNA; test: qRT-PCR of mRNA levels in hypothalamus and hippocampus
# Experimental: Levels of mRNA for Nkcc1 and Kcc2 in the hypothalamus and hippocampus, for Crh, Erα, Erβ, aromatase, GnRH in the hypothalamus, and for Grs in the hippocampus were analyzed via reverse transcription-PCR (qRT-PCR) in a StepOnePlus™ Real-Time PCR System (Applied Biosystems, Foster City, CA) as previously described. 5 RNA was extracted from the samples using an RNeasy Plus Kit (Qiagen, Valencia, CA), reverse transcribed with a high-capacity cDNA reverse transcription kit (Bio-Rad Laboratories, Hercules, CA), and then analyzed via qRT-PCR. Taqman probes specific for the above genes were obtained from Applied Biosystems (Carlsbad, CA): Crh (Rn01462137_m1), Gr (Rn00561369_m1), Erα (Rn01430446_m1), Erβ (Rn00562610_m1), aromatase (Rn00567222_m1), Gnrh (Rn00562754_m1), Nkcc1 (Rn00582505_m1) and Kcc2 (Rn00592624_m1). Data were normalized to glyceraldehyde-3-phosphate dehydrogenase (Gapdh) mRNA (Rn01775763_g1). Gene expression was calculated using the ΔΔCT method and data are presented as relative fold change from that of control animals.
# [4] = G2 female rats, parental sevoflurane exposure
# [5] = G1 female rats, control vs sevoflurane-exposed
# [6] = G1 female rats, more than 3 months after exposure
# [7] = G1 male rats, more than 3 months after exposure
# [8] = G2 females, parental sevoflurane exposures
# [9] = G2 males, all four treatment groups
smiles,measurement,setting,value
"FCOC(C(F)(F)F)C(F)(F)F [sevoflurane, 1,1,1,3,3,3-hexafluoro-2-(fluoromethoxy)propane]",PPI of startle responses,"Sprague-Dawley rats [1]; G1 male rats, prepulse intensity of 3 dB, vs control",impaired PPI of startle responses
same,startle amplitudes,Sprague-Dawley rats [1]; G2 female rats,similar
same,PPI of startle,Sprague-Dawley rats [1]; [4],no significant treatment effect
same,startle amplitudes,Sprague-Dawley rats [1]; G2 male rats,similar
same,PPI of startle at PP3,Sprague-Dawley rats [1]; G2 males of both exposed parents,reduced PPI of startle
same,PPI of startle at PP3,Sprague-Dawley rats [1]; G2 males of control fathers and exposed mothers,reduced PPI of startle
same,serum corticosterone levels,"Sprague-Dawley rats [2]; G1 female rats, before and after restraint, vs control",no difference
same,serum corticosterone,"Sprague-Dawley rats [2]; G1 male rats, 10 min after restraint, vs control",higher levels
same,total corticosterone responses (AUCg),"Sprague-Dawley rats [2]; G1 male rats, 30 min restraint on ≥P160, vs control",significantly higher
same,serum corticosterone,"Sprague-Dawley rats [2]; G1 male rats, 60 min after restraint, vs control",higher levels
same,serum corticosterone,"Sprague-Dawley rats [2]; G1 male rats, 120 min post restraint, vs control",not different
same,serum corticosterone,"Sprague-Dawley rats [2]; G1 male rats, before the restraint, vs control",not different
same,serum levels of corticosterone before and after physical restraint,Sprague-Dawley rats [2]; G2 female rats,no differences
same,serum levels of corticosterone before and after physical restraint,Sprague-Dawley rats [2]; G2 male rats,no differences
same,hippocampal Kcc2 mRNA levels,[3]; [5],similar
same,hippocampal Nkcc1 mRNA levels,[3]; [5],similar
same,Kcc2 mRNA levels in the hypothalamus,[3]; [6],unaltered
same,Nkcc1 mRNA levels in the hypothalamus,[3]; [6],unaltered
same,hippocampal Gr mRNA levels,"[3]; G1 female rats, vs control",Neither hypothalamic Crh mRNA levels (FIG. 4C) nor hippocampal GrmRNA levels (FIG. 4D) were different
same,hypothalamic Crh mRNA levels,"[3]; G1 female rats, vs control",Neither hypothalamic Crh mRNA levels (FIG. 4C) nor hippocampal GrmRNA levels (FIG. 4D) were different
same,hypothalamic levels of Erα mRNA,"[3]; G1 female rats, vs control",not different
same,hypothalamic levels of Erβ mRNA,"[3]; G1 female rats, vs control","slightly, though significantly increased"
same,hypothalamic levels of Gnrh mRNA,"[3]; G1 female rats, vs control",no significant treatment effects
same,increase in hypothalamic aromatase mRNA,"[3]; G1 female rats, vs control",did not achieve statistical significance
same,hypothalamic Crh mRNA levels,"[3]; G1 male rats, 2 hours after the restraint, vs control",increased
same,Kcc2 mRNA levels in the hippocampus,[3]; [7],significantly reduced
same,Kcc2 mRNA levels in the hypothalamus,[3]; [7],decreased
same,Nkcc1 mRNA levels in the hippocampus,[3]; [7],but not Nkcc1 mRNA levels
same,Nkcc1 mRNA levels in the hypothalamus,[3]; [7],normal
same,Gr mRNA in the hippocampus,"[3]; G1 male rats, vs control",reduced
same,hypothalamic levels of Era mRNA,"[3]; G1 male rats, vs control",increased
same,hypothalamic levels of Erβ mRNA,"[3]; G1 male rats, vs control",decreased
same,hypothalamic levels of Gnrh mRNA,"[3]; G1 male rats, vs control",increased
same,hypothalamic levels of aromatase mRNA,"[3]; G1 male rats, vs control",significantly increased
same,hippocampal Gr mRNA levels,[3]; [4],no significant between-subjects effects
same,hypothalamic Crh mRNA,[3]; [4],no significant between-subjects effects
same,Kcc2 mRNA level in the hippocampus,[3]; [8],not significant
same,Kcc2 mRNA levels in the hypothalamus,[3]; [8],not significant
same,Nkcc1 mRNA level in the hippocampus,[3]; [8],not significant
same,Nkcc1 mRNA levels in the hypothalamus,[3]; [8],not significant
same,hippocampal Kcc2 mRNA levels,[3]; G2 male offspring of both exposed parents,reduced
same,hippocampal Kcc2 mRNA levels,[3]; G2 male offspring of exposed fathers and control mothers,reduced
same,hypothalamic Kcc2 mRNA levels,"[3]; G2 male progeny of sevoflurane exposed fathers and mothers, vs offspring of control parents",lower levels
same,Crh mRNA in the hypothalamus,[3]; [9],not different
same,Gr mRNA levels in the hippocampus,[3]; [9],not different
same,Nkcc1 mRNA levels in the hippocampus,"[3]; G2 males, parental sevoflurane exposure",no significant effects
